According to patent US10281451B2, “Method of determining the viability of at least one cell” (The Regents of the University of Michigan, priority 2012, dated 2019):

Tested on: EVPOME tissue-engineered constructs (primary human oral keratinocytes)
Assay: Quantitative histology scoring (H&E) of rapamycin-treated tissue-engineered constructs
Assay type: cell-based
Description: A section was sliced across the construct, near the edge, fixed in 10% phosphate buffered formalin, and embedded in paraffin for hematoxylin and eosin (H&E) histology and immunohistochemistry (IHC). All the engineered tissues were sectioned for histological assessment and some for IHC imaging. Some engineered tissues were randomly selected for punch biopsies for WST-1 assay. The remaining intact constructs were non-invasively assessed with label-free optical imaging. For each construct, three sites were randomly selected for optical imaging. A tissue-engineered construct consists of three layers: keratin, living cellular, and dermal equivalent layer. Thus, for each site, one to two optical images were measured at lower and upper depths for the proliferating basal layer and the differentiating cellular layer respectively.
10 batches tissue-engineered constructs manufactured with cells from 10 independent patients were studied: 5 batches for the rapamycin experiment and 5 batches for the thermal-stress experiment. For the rapamycin experiment, 2 nM rapamycin was added in the medium at the cell culture stage for five days prior to tissue-stage culture and/or the tissue culture stage. Therefore, a total of four experimental conditions were created in the rapamycin experiment: • 1. Control+control: no rapamycin was added to the cultures during the two stages. • 2. Control+rapa: no rapamycin was added to the first cell culture stage medium; rapamycin was added to the second tissue culture stage medium. • 3. Rapa+control: rapamycin was added to the first cell culture stage medium; no rapamycin was added to the second tissue culture stage medium. • 4. Rapa+rapa: rapamycin was added to the medium used in both the culture stages.
All H&E histology slides were assessed by a panel of three blinded expert readers. Classification criteria were previously developed and detailed, where a viability score of 1 (least viable), 2, 3, 4, or 5 (most viable) was used. The classification criteria included the basal cell layer health, the construct cellular organization, and the keratin layer structural quality. The readers individually assigned a score to each EVPOME histology slide, while blinded to the construct condition and to the other readers' scores.
Quantitative histology scoring was performed to assess tissue morphology. Two groups of cultured cells were categorized: well-growing culture and poorly-growing culture. The well-growing and the poorly-growing cultures were defined by their control+control histology scores. A control+control score >3 is defined as well-growing. A control+control score <=3 is defined as poorly growing.

Q: For CO[C@H]1C[C@@H]2CC[C@@H](C)[C@@](O)(O2)C(=O)C(=O)N2CCCC[C@H]2C(=O)O[C@H]([C@H](C)C[C@@H]2CC[C@@H](O)[C@H](OC)C2)CC(=O)[C@H](C)/C=C(\C)[C@@H](O)[C@@H](OC)C(=O)[C@H](C)C[C@H](C)/C=C/C=C/C=C/1C [Rapamycin], which histology score (control+rapa construct (2 nM rapamycin in tissue culture stage only), poorly-growing culture, score 1 to 5) is on record?
A: Its histology score is “<= 3”.

Q: What about the histology score (rapa+control construct (2 nM rapamycin in cell culture stage only), poorly-growing culture, score 1 (least viable) to 5 (most viable)) of the same molecule?
A: Its histology score is 4.7.

Q: What about the histology score (rapa+rapa construct (2 nM rapamycin in both culture stages), poorly-growing culture, score 1 to 5) of the same molecule?
A: Its histology score is “<= 3”.

Q: And the histology score (well-growing culture, all four constructs incl. rapa+control, control+rapa, rapa+rapa, score 1 to 5)?
A: The histology score was > 3.
